Measured values taken from US4629683A, “Processing silver halide photographic material with blocked agent and hydroxylamine” (Fuji Photo Film Co., Ltd., priority 1983, dated 1986).

Tests used:
[1] = Acceleration effect of hydroxylamine upon release of antifoggant from precursor (HPLC, half-life); type: physicochemical; parameters: key to Acceleration Effect: ratio of half-life without hydroxylamine to half-life with it; conditions: for t1/2 Hydroxylamine Absent / t1/2 Hydroxylamine Present: release of antifoggant; for change in releasing speed due to addition of hydroxylamine: in words, pH 10.0 and 11.0
Method: Measurement of Acceleration Effect of Hydroxylamine upon Release of Antifoggant from Precursor Thereof
(§1) The resulting solution was added to a mixture of 16 ml of acetonitrile and 20 ml of Britton-Robinson buffer solution (Britton-Robinson buffer solution can be prepared by mixing phosphoric acid, boric acid, acetic acid and sodium hydroxide, and of which pH can be adjusted within a pH range of 1.81 to 11.98), and allowed to react (wherein the pH of the solution was controlled by the buffer solution). After a definite time, acetic acid was added to lower the pH of the reaction mixture to 6.25 and thereby the reaction stopped. The antifoggant released was determined using high-speed liquid chromatography and therefrom the rate constant of the pseudo first-order reaction and, further, the half-life t1/2 were evaluated.
(§2) The acceleration effect of hydroxylamine was determined by comparison of the half-life value in the hydroxylamine present present case and that in the hydroxylamine-absent case and, further, compared with effects of known precursors of the kind which release antifoggants without ring-cleavage (Comparison Precursor (A-1) and Comparison Precursor (A-2)).

[2] = Acceleration effect of hydroxylamine upon release of pyrazolidones from precursors (half-life); type: physicochemical; conditions: for Acceleration Effect: pH 10.0, half-life hydroxylamine absent vs present; for t1/2 Hydroxylamine Absent / t1/2 Hydroxylamine Present: release of pyrazolidones; for t1/2 Hydroxylamine Absent: pH 10.0, hydroxylamine absent; for t1/2 Hydroxylamine Present: pH 10.0, hydroxylamine present
Method: as §1, §2
Measurement of Acceleration Effect on Hydroxylamine upon Release of Pyrazolidones from Precursors Thereof
The acceleration effects of hydroxylamine upon release of pyrazolidones were determined in the same way as in Example 1, and the results obtained are shown in Table 2 below.

[3] = pH 10.0, half-life hydroxylamine absent vs present
[4] = pH 11.0, half-life hydroxylamine absent vs present
[5] = pH 10.0, hydroxylamine present (3.8×10^-4 mole)
[6] = pH 11.0, hydroxylamine present (3.8×10^-4 mole)

Row | Acceleration Effect [1, 3] | Acceleration Effect [1, 4] | t1/2 Hydroxylamine Absent ([1]; pH 10.0, hydroxylamine absent) | t1/2 Hydroxylamine Present [1, 5] | t1/2 Hydroxylamine Absent ([1]; pH 11.0, hydroxylamine absent) | t1/2 Hydroxylamine Present [1, 6] | Acceleration Effect [2] | t1/2 Hydroxylamine Absent [2] | t1/2 Hydroxylamine Present [2] | Structure (SMILES) | change in releasing speed due to addition of hydroxylamine [1]
1 | 29 | 30 | 27,000 sec | 960 s | 3,300 sec | 110 s | – | – | – | O=C1OC(Sc2nnnn2-c2ccccc2)c2ccccc21 (centres unmarked) [(III)-(1)] | –
2 | 1.1 | 1.1 | 25,000 sec | 23,000 sec | 2,900 sec | 2,700 sec | – | – | – | CC(CC#N)Sc1nnnn1-c1ccccc1 (centres unmarked) [Comparison Precursor (A-2), reference compound] | reduced the releasing speed rather than accelering it, or hardly showed any appreciable change in the releasing speed
3 | 5.0 | 4.1 | 3,500 sec | 700 s | 420 s | 100 s | – | – | – | CN1C(=O)c2cccc(N(C)C(=O)Sc3nnnn3-c3ccccc3)c2C1=O [(IV)-(2)] | –
4 | – | – | – | – | – | – | 6.3 | 5,600 sec | 880 s | CN1C(=O)c2cccc(N(C)C(=O)OC3=NN(c4ccccc4)CC3(C)CO)c2C1=O (centres unmarked) [(IV)-(5)] | –
5 | 37 | 16 | 3,700 sec | 100 s | 470 s | 29 s | – | – | – | O=C1c2ccccc2S(=O)(=O)N1CSc1nnnn1-c1ccccc1 [(I)-(15)] | –
6 | 8.1 | 3.0 | 320 s | 38 s | 37 s | 12 s | – | – | – | O=C1c2ccc([N+](=O)[O-])cc2C(=O)N1CSc1nnnn1-c1ccccc1 [(I)-(10)] | –
7 | 25 | 27 | 53,000 sec | 2,100 sec | 6,200 sec | 230 s | – | – | – | CN(C(=O)Sc1nnnn1-c1ccccc1)c1cccc2c1COC2=O [(V)-(1)] | –
8 | – | – | – | – | – | – | 21 | 9,300 sec | 440 s | O=C1CCN(c2ccccc2)N1CN1C(=O)c2ccccc2S1(=O)=O [Compound (I)-(18), N-(1-phenyl-3-pyrazolidinone-2-ylmethyl)saccharin] | –

The next lines start with the compound.

Row | Structure (SMILES) | Acceleration Effect [1, 3] | Acceleration Effect [1, 4] | t1/2 Hydroxylamine Absent ([1]; pH 10.0, hydroxylamine absent) | t1/2 Hydroxylamine Present [1, 5] | t1/2 Hydroxylamine Absent ([1]; pH 11.0, hydroxylamine absent) | t1/2 Hydroxylamine Present [1, 6] | Acceleration Effect [2] | t1/2 Hydroxylamine Absent [2] | t1/2 Hydroxylamine Present [2] | change in releasing speed due to addition of hydroxylamine [1]
9 | CC1(C)CN(c2ccccc2)N(CN2C(=O)c3ccccc3S2(=O)=O)C1=O [(I)-(19)] | – | – | – | – | – | – | 19 | 7,200 sec | 370 s | –
10 | O=C1c2ccccc2C(=O)N1COC1=NN(c2ccccc2)CC1 [Compound (I)-(14), 1-phenyl-3-(N-phthalimidomethyloxy)-2-pyrazoline] | – | – | – | – | – | – | 8.2 | 3,200 sec | 390 s | –
11 | O=C1c2ccccc2C(=O)N1CN1C(=O)CCN1c1ccccc1 [Compound (I)-(13), 1-phenyl-2-(N-phthalimidomethyl)-3-pyrazolidinone] | – | – | – | – | – | – | 3.6 | 9,400 sec | 2,600 sec | –
12 | O=C1OC(N2C(=O)CCN2c2ccccc2)c2ccc([N+](=O)[O-])cc21 (centres unmarked) [(III)-(7)] | – | – | – | – | – | – | 29 | 13,000 sec | 450 s | –
13 | O=C1CC(Sc2nnnn2-c2ccccc2)C(=O)N1c1ccccc1 (centres unmarked) [Comparison Precursor (A-1), reference compound] | 0.61 | 0.82 | 2,600 sec | 4,200 sec | 310 s | 380 s | – | – | – | reduced the releasing speed rather than accelering it, or hardly showed any appreciable change in the releasing speed
14 | O=C1OC(Sc2nnnn2-c2ccccc2)(c2ccccc2)c2ccc([N+](=O)[O-])cc21 (centres unmarked) [(III)-(14)] | 27 | 25 | 9,000 sec | 340 s | 980 s | 39 s | – | – | – | –
15 | O=C1CCC(=O)N1CSc1nnnn1-c1ccccc1 [(II)-(1)] | 5.2 | 2.5 | 5,700 sec | 1,200 sec | 650 s | 260 s | – | – | – | –
16 | CNC(=O)Nc1cccc(-n2nnnc2SCN2C(=O)c3ccccc3S2(=O)=O)c1 [(I)-(16)] | 35 | 18 | 4,100 sec | 120 s | 490 s | 27 s | – | – | – | –
